Results: the NIST ThermoML archive (doi:10.1016/j.jct.2016.11.022)
± gives the expanded uncertainty stated by the source.

Assays:
[1] = Molar enthalpy of transition or fusion; conditions: DSC
[2] = DTA

| Molar enthalpy of transition or fusion ([1]; Crystal) [kcal/mol] | Molar enthalpy of transition or fusion ([1]; Metastable crystal) [kcal/mol] | Normal melting temperature ([2]; Crystal) [°C] | Normal melting temperature ([2]; Metastable crystal) [°C] | Compound |
| --- | --- | --- | --- | --- |
| 3.26 ± 0.335 | 2.78 ± 0.287 | 80.62 ± 1.1 | 70.14 ± 1.1 | CC(N)=O [ethanamide] |
| 14.4 ± 1.46 |  | 69.47 ± 1.1 |  | CCCCCCCCCCCCCCCCCC(=O)O [octadecanoic acid] |
